Experiments:
Assay type in all cases: cell-based
Jurkat cells [1] = assay: CellTiter-Glo Luminescent Cell Viability Assay (ATP), Jurkat; conditions: 24 hours exposure, mean ± SD of triplicates
From the text: (§1) Assessment of Cellular Toxicity (Toxilight Assay and CellTiter-Glo Assay)
(§2) Purpose. To detect potential cellular toxicity of present LFA-1 inhibitors two complementary assays were chosen: the Toxilight™ BioAssay (Lonza) and the CellTiter-Glo™ Luminescent Cell Viability Assay (Promega). The Toxilight assay measures cell death via the release of the cytosolic enzyme adenylate kinase into the supernatant of treated cell cultures. The CellTiter-Glo assay directly determines the key energy metabolite ATP, resulting in sensitive quantitation of the number of healthy cells in culture.
(§3) Both assays were used with two different cell lines: the Jurkat and HepG2 cell lines. Jurkat, a human lymphocytic leukemia cell line, was utilized to assess the effect of the compounds on LFA-1 expressing cells. HepG2, a human hepatocyte cell line, was used to assess the response of liver cells where drugs are metabolized. Both assays included the use of untreated cells, and cells treated with amiodarone or 0.5% Triton X 100 as cytotoxic controls.
(§4) Jurkat cells and HepG2 cells were cultured in RPMI 1640 containing 10% FCS or DMEM containing 10% FCS under standard conditions (recommended by ATCC). Compounds were dissolved in DMSO and serially pre-diluted in DMSO (100%) to avoid precipitation of the compounds, before final dilution steps in culture medium containing FCS were performed. The final DMSO concentration was kept constant at 0.5% in all samples.
(§5) The test compounds and controls were exposed to the cells for 24 hours respectively at 37° C. Then adenylate kinase activity was quantified in the supernatant of the cell cultures using the ToxiLight™ reagent. In an independent set of experiments ATP content was measured by adding the CellTiter-Glo™ reagent according to manufacturer's instructions.

HepG2 cells [2] = assay: Toxilight BioAssay (adenylate kinase release), HepG2; conditions: 24 hours exposure, mean ± SD of triplicates
From the text: as §1, §2, §3, §4, §5

VLA-4 = target: T1, VLA-4 (Homo sapiens, UniProt P05556+P13612); assay: V well cell adhesion assay, VLA-4-mediated Jurkat cell binding to VCAM-1 (VLA-4 adhesion); conditions: Jurkat cells on VCAM-1 Fc; single experiments run in triplicates
T1 construct: endogenous in cells; host or cells: Jurkat cells
T1 sequence (P13612 34-1032): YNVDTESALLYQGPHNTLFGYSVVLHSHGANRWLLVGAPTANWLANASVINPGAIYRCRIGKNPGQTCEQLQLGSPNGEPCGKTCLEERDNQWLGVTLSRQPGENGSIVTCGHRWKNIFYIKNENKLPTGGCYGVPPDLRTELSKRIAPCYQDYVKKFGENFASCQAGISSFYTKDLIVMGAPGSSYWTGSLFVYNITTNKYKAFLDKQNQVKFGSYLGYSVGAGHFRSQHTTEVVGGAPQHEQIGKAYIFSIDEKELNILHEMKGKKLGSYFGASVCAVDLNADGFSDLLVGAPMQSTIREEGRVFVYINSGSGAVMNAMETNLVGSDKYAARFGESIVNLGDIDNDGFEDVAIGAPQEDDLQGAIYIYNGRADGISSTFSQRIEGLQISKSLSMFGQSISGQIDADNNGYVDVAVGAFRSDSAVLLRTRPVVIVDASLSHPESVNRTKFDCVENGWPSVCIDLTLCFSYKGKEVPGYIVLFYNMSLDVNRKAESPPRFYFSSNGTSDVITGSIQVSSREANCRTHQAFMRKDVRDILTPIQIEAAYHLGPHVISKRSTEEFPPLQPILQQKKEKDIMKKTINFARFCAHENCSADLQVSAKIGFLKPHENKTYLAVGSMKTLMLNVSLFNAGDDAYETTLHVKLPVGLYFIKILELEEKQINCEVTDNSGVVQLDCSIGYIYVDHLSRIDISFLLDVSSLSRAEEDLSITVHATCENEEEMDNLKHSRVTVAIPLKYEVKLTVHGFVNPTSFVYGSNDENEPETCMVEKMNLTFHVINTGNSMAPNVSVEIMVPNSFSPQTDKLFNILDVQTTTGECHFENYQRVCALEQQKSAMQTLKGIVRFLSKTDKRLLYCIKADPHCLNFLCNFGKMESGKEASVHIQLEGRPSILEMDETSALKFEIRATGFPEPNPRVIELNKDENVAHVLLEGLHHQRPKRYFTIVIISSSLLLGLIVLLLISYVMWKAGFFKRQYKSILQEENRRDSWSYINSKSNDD
T1 sequence (P05556 21-798): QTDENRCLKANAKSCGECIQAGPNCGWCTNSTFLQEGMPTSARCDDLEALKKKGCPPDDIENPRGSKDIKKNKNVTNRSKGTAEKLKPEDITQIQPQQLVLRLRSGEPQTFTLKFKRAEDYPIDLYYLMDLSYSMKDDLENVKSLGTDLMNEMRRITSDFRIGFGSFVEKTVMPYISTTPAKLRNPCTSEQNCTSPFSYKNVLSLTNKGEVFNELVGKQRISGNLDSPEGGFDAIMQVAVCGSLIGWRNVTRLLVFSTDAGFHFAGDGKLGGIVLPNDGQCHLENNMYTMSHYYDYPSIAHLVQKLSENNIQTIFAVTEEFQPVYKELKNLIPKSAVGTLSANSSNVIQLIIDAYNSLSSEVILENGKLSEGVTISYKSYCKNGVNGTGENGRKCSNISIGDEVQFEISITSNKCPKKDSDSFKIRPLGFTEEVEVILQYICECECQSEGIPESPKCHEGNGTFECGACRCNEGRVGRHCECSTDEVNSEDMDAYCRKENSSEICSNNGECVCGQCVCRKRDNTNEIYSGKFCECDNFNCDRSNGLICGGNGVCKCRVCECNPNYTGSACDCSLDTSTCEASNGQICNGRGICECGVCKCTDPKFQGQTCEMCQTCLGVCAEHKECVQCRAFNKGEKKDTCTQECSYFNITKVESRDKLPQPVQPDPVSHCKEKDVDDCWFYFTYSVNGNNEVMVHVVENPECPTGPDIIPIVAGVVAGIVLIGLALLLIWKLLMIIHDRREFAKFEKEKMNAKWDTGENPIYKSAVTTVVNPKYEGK
Method: Cell-Based Assay to Determine the Selectivity of the Compounds Over the Integrin VLA-4 (VLA-4 Adhesion)
Purpose of the Assay: This V well cell adhesion assay measures the effect of the compounds on VLA-4-mediated Jurkat cell binding to VCAM-1. The assay has been successfully used in the past to determine the selectivity of small molecule LFA-1 inhibitors over the integrin VLA-4.
Experimental Protocol: The adhesion assay was performed as described above for the Jurkat/ICAM-1 V well adhesion assay. Briefly, plates were coated with anti-human IgG mAb and blocked with BSA as described above. Instead of ICAM-1, recombinant human VCAM-1/CD106 Fc chimera (R&D Systems) was coated onto the plates (0.3 μg/mL in coating buffer). After incubation, labelled Jurkat cells in binding buffer were transferred to the wells (20,000 cells/well). The plates were immediately centrifuged at 1000 rpm for 4 min at rt (Centrifuge Eppendorf 5810 R) setting the brakeoff. Non-adherent cells were quantified in the tip of the Vbottom well using a fluorescence reader. IC50 values of the compounds were calculated using the software GraphPad Prism 6.

LFA-1 [3] = target: T2, LFA-1 (Homo sapiens, UniProt P20701); assay: Flow cytometry, mAb MEM148 binding to LFA-1 expressed on leukocytes; conditions: solvent ctrl = 1, Jurkat cells or PBMCs
T2 construct: endogenous in cells; host or cells: Jurkat cells
T2 sequence (P20701 26-1170): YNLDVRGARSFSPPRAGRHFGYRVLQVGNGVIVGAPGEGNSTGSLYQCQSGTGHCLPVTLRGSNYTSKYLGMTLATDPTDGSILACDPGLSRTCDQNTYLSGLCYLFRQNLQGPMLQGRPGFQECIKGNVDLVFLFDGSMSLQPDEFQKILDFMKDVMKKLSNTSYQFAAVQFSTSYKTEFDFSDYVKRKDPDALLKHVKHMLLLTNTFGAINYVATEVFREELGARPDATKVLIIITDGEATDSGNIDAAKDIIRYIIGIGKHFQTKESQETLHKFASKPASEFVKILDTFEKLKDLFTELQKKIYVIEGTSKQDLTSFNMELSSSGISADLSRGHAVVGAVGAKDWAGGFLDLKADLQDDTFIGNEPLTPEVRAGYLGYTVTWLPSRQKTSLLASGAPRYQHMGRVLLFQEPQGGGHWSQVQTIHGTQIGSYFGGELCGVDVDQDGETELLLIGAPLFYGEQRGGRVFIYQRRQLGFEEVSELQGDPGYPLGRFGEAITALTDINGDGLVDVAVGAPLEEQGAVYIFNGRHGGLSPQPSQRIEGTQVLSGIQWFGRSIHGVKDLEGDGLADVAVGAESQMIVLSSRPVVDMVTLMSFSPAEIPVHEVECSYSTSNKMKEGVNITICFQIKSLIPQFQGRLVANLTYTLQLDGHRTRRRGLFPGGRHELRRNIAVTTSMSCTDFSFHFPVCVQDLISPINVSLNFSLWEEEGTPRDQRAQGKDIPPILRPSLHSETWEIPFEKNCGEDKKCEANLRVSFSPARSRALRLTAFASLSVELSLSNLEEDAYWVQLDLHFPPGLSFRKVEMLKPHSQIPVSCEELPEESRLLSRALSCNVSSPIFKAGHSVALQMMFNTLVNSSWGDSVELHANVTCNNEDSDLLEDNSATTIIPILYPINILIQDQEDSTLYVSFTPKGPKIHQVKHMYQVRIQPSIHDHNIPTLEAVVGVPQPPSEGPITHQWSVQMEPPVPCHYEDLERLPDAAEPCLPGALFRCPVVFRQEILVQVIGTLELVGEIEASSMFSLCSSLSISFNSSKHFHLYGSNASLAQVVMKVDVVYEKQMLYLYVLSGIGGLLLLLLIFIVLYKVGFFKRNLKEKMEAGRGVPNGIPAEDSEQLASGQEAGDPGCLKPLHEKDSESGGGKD
T2 sequence (P05107 23-769 partner): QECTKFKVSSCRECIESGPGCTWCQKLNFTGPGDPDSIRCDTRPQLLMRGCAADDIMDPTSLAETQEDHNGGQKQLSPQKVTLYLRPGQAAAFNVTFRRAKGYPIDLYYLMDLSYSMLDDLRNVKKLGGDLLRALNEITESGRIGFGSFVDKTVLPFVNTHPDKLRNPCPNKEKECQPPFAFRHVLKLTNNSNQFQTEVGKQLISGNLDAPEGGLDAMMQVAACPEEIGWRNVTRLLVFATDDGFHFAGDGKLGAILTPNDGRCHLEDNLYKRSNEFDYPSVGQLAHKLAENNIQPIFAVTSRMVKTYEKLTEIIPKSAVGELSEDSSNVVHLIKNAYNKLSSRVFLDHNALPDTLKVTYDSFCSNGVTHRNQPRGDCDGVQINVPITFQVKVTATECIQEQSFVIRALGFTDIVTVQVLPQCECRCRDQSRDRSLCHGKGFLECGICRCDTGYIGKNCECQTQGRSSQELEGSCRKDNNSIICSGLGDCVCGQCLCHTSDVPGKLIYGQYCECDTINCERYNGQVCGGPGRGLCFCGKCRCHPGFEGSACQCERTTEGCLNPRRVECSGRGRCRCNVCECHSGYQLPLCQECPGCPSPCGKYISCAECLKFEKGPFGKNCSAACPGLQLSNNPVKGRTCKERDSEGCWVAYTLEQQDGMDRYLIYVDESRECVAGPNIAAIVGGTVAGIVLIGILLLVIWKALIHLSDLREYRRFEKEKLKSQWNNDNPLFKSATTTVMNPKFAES
Method: Quantification of mAb MEM148 Binding to LFA-1 (mAb MEM148 Binding)
Purpose of the Assay: This flow cytometry assay determines the effect of the compounds on the binding of the conformation-sensitive anti-LFA-1 mAb MEM148 to LFA-1 expressed on leukocytes. The mAb MEM148 detects an epitope which becomes exposed in activated LFA-1 [Yuki 2012]
Experimental Protocol: The assay is performed as the flow cytometry assay described above.
Briefly, Jurkat cells or PBMCs in assay buffer (50 mM Tris, 150 mM NaCl, 1 mM CaCl2, 1 mM MgCl2, 5 mM Glucose, 1.5% BSA, pH 7.3) were pre-incubated with the compounds and appropriate positive controls for 40 min at rt. After incubation, the cell-suspension was centrifuged, the supernatant discarded and PE-labelled anti-LFA-1 mAb MEM148 was directly added to the pellets. After pipetting up and down, the tubes were incubated for 30 min. at 37° C. in the dark. The pellet was washed twice with 1 mL PBS and resuspended in PBS. Antibody binding was quantified by flow cytometry. Mean fluorescence intensities (MFI) were calculated using the CellQuest software.

HepG2 cells [4] = assay: CellTiter-Glo Luminescent Cell Viability Assay (ATP), HepG2; conditions: 24 hours exposure, mean ± SD of triplicates
From the text: as §1, §2, §3, §4, §5

Jurkat cells [5] = assay: Toxilight BioAssay (adenylate kinase release), Jurkat; conditions: 24 hours exposure, mean ± SD of triplicates
From the text: as §1, §2, §3, §4, §5

LFA-1 [6] = target: T2, LFA-1; assay: V well cell adhesion assay, LFA-1-mediated Jurkat cell binding to ICAM-1 (LFA-1 adhesion); conditions: Jurkat cells on ICAM-1/Fc; mean ±SD of ≥3 independent experiments in triplicates or single experiments in triplicates
Method: Cell-Based Assay to Determine the Effect of the Compounds on LFA-1-Mediated Cell Adhesion (LFA-1 Adhesion)
Purpose of the Assay: The V well cell adhesion assay measures the ability of the compounds to interfere with LFA-1-mediated binding to ICAM-1 at cellular level. The assay has been successfully used in the past to identify and characterize small molecules LFA-1 inhibitors.
Experimental Protocol: The adhesion assay was performed in Vbottom 96-well plates as described previously [Weitz-Schmidt 2012]. Briefly, the plates were coated with anti-human IgG mAb diluted in coating buffer (20 mM Tris containing 150 mM NaCl, pH 8) (1 μg/mL) and incubated overnight at 4° C. The plates were flicked out and blocked with blocking buffer (50 mM Tris base, 150 mM NaCl, 1.5% BSA (w/v), pH 7.2) at 37° C. for 90 min. Then human recombinant ICAM-1/Fc (R&D Systems) diluted in coating buffer (0.3 μg/mL) was added to each well. The plates were incubated at 37° C. for 90 min and washed with binding buffer (50 mM Tris base, 150 mM NaCl, 1.5% BSA (w/v), 2 mM MgCl2, 2 mM MnCl2, 5 mM D-glucose monohydrate, pH 7.2-7.4) to remove unbound ligand.
Jurkat cells were cultured under standard conditions as recommended by the American Type Culture collection (ATCC). The cells were fluorescently labelled with BCECF-AM in PBS (1 μg/mL) at 37° C. for 20 min in the dark, centrifuged and washed with PBS. The test compounds were dissolved in DMSO at 10 mM and serially pre-diluted in DMSO (100%) to avoid precipitation, before performing final dilution steps in binding buffer.
The labelled Jurkat cells were re-suspended in binding buffer and test compounds or solvent control were added. The DMSO concentration was kept constant in all samples (1% DMSO as final assay concentration). After 40 min at 37° C. (LFA-1 activation and compound pre-incubation step) the cell suspension (3×10^5 cells/mL in binding buffer) was pipetted up and down and transferred to the ligand-coated microtiter V well plates (30 000 cells/well). The plates were centrifuged for 4 min at room temperature (rt) at 1000 rpm (Centrifuge Eppendorf 5810 R), setting the brake off Non-adherent cells that accumulated in the center of the Vbottom were quantified using a fluorescence reader with the filter sets allowing excitation at 485 nm and quantification of emission at 535 nm. The determination of the half maximal inhibitory concentration (IC50) of the compounds was calculated using the software GraphPad Prism 6.

LFA-1 [7] = target: T2, LFA-1; assay: Flow cytometry, mAb R7.1 binding to LFA-1 expressed on leukocytes; conditions: Jurkat cells or human PBMCs, values of independent experiments; for inhibition at 1 µM: Jurkat
Method: Measurement of mAb R7.1 binding to LFA-1 (mAb R7.1 binding)
Purpose of the Assay: This flow cytometry assay determines the effect of the compounds on the binding of the anti-LFA-1 mAb R7.1 to LFA-1 expressed on leukocytes.
Experimental Protocol: Jurkat cells or human peripheral blood mononuclear cells (PBMCs) were resuspended in assay buffer (50 mM Tris, 150 mM NaCl, 2 mM MgCl2, 1.5% BSA and 5 mM D-glucose monohydrate, pH7.2) at 2×10^6 cells/mL and 500 μL of this cell suspension (1×10^6 cells) were transferred into polypropylene tubes containing the test compounds diluted in 500 μL assay buffer. The samples were pre-incubated at 37° C. for 40 min, and centrifuged. The supernatants were removed and FITC-labelled anti-LFA-1 mAb R7.1 and PE-labeled anti-LFA-1 mAb TS2/4 (mAb TS2/4 is not affected by alpha I allosteric inhibitor binding to LFA-1) or appropriate isotype controls were added directly to each cell pellet. The pellets were then gently pipetted up and down and incubated on ice for 30 min in the dark. After the incubation step the cells were washed twice with PBS and resuspended in PBS.
Antibody binding was analyzed by flow cytometry. Mean fluorescence intensities (MFI) were calculated using the CellQuest software. The values are expressed as % of solvent control (solvent control=100% binding).

SMILES	CellTiter-Glo Jurkat % viability at 10 μM (Jurkat cells [1]) [%]	Toxilight HepG2 % viability at 10 μM (HepG2 cells [2]) [%]	IC50 (VLA-4) [µM]	mAb MEM148 binding, binding relative to solvent ctrl at 10 μM (LFA-1 [3])	CellTiter-Glo HepG2 % viability at 10 μM (HepG2 cells [4]) [%]	Toxilight Jurkat % viability at 10 μM (Jurkat cells [5]) [%]	IC50 (LFA-1 [6]) [µM]	mAb R7.1 binding % inhibition at 1 μM (LFA-1 [7]) [%]	inhibition at 1 µM (LFA-1 [7]) [%]
C[C@]12C(=O)N(c3cc(Cl)cc(Cl)c3)C(=O)[C@H]1C2(c1ccccc1)c1ccccc1 (racemic) [4b (racemate), rac-(1S,5S)-3-(3,5-Dichlorophenyl)-1-methyl-6,6-diphenyl-3-azabicyclo[3.1.0]hexane-2,4-dione]	96.8 ± 4.7	124 ± 29.7	> 10	0.974	98.4 ± 3.8	101 ± 9.8	1.87 ± 1.27	80.0	76.9
C[C@]12C(=O)N(c3cc(Cl)cc(Cl)c3)C(=O)[C@H]1[C@H]2c1ccc(Br)cc1 (racemic) [4′f (racemate), rac-(1R,5S,6S)-6-(4-Bromophenyl)-3-(3,5-dichloro-phenyl)-1-methyl-3-azabicyclo[3.1.0]hexane-2,4-dione]	115.0 ± 4.8	115.6 ± 35.1	> 10	0.96	101.6 ± 4.0	99.9 ± 24.2	0.715 ± 0.618	91.7	85.2
C[C@]12C(=O)N(c3cc(Cl)cc(Cl)c3)C(=O)[C@H]1[C@H]2c1ccc(OC(F)(F)F)cc1 (racemic) [4′g (racemate), rac-(1R,5S,6S)-3-(3,5-Dichlorophenyl)-1-methyl-6-[4-(trifluoromethoxy)phenyl]-3-azabicyclo[3.1.0]hexane-2,4-dione]	111.4 ± 7.4	99.8 ± 26.5	> 10	0.89	102.6 ± 4.5	116 ± 16.2	0.55 ± 0.206	94.1	93.6
C[C@]12C(=O)N(c3cc(Cl)cc(Cl)c3)C(=O)[C@H]1[C@H]2c1ccc(C#N)cc1 (racemic) [4′h (racemate), rac-4-[(1R,5S,6S)-3-(3,5-Dichlorophenyl)-1-methyl-2,4-dioxo-3-azabicyclo[3.1.0]hexan-6-yl]benzonitrile]	112.6 ± 4.9	78.3 ± 35.2	> 10	1.00	103.7 ± 3.2	93.5 ± 2.06	0.147	95.8	96.8
CC12C(=O)N(c3cc(Cl)cc(Cl)c3)C(=O)C1C2(c1ccccc1)c1ccccc1 (single isomer, unassigned) [4b enantiomer A]	92.8 ± 4.7	120 ± 40.2	> 10	no	101.5 ± 1.9	100 ± 12.9	1.34 ± 0.678		87.3
